The values that follow come from US11331290B2, “Niclosamide for the treatment of cancer metastasis” (Max-Delbrück-Centrum für Molekulare Medizin in der …, priority 2011, dated 2022).

Assay [1] deals with SW620, LS174T, SW480 and DLD-1 cells. Briefly: Wound healing assay (directed migration). It is filed as cell-based, human. As to conditions: 1 μM daily, 4 days, vs respective solvent-treated control. On the procedure: For wound healing assay HCT116, SW620, LS174T, SW480 and DLD-1 cells were grown to form 60% confluent monolayers of cells in which a wound of about 300 μm width was inflicted with a sterile pipette tip. The medium was exchanged to remove non-adherent cells and the wounded monolayer was treated with 1 μM niclosamide or the respective amount of DMSO every 24 hours for 4 consecutive days. The progress of wound closure was monitored with microphotographs of 10× magnification taken with the Leica DM IL light microscope (Leica Microsystems) on day 0 and day 4. The wound healing experiment was performed three independent times.
(A) S100A4 expression under niclosamide treatment. […] S100A4 expression was analyzed with qRT-PCR and immunoblot. […] Migration rates of cells treated with 1 μM niclosamide for 24 hours were determined in a Boyden chamber assay values were normalized to solvent-treated SW620 cells. […] Invaded cells in the lower chamber were counted and normalized to solvent-treated SW620 cells. Differences in solvent vs. niclosamide-treated cells were analyzed by Student's t test. […] The amount of viable cells per well was determined by MTT assay. […] (G) Quantification of colonies formed. Number of colonies (of more than 4 cells) was counted and normalized to solvent-treated SW620 cells. Differences in solvent vs. niclosamide-treated cells were analyzed by Student's t test. […]

Assay [2] concerns HCT116-vector cells and HCT116-S100A4 cells. Briefly: Anchorage-dependent cell proliferation (MTT). It is filed as cell-based, human. Particulars: 1 μM daily. On the procedure: For cell proliferation determination of HCT116, SW620, LS174T, SW480 and DLD-1 cells 2×10^3 cells were seeded in 96-well-plates (for each day one plate) and were given 24 hours to attach to the bottom of the well. Cells were from then on treated daily with 1 μM niclosamide or the respective amount of DMSO. For determination of viable cells 3-(4,5-dimethyl-2-thiazol)-2,5-diphenyl-2H-tetrazolium bromide (MTT; Sigma) was added to a final concentration of 0.5 mg per mL and incubated for 3 hours at 37° C. and 5% CO2 in a humidified incubator. […] Crystallized MTT was resolved by 10% SDS in 10 mM HCl and the absorption was measured at 560 nm. […] The average MTT metabolisation was determined of two independent experiments each performed in triplicate.
(A) Cell migration of HCT116-vector and HCT116-S100A4 cells exposed to niclosamide treatment. Cells were treated with 1 μM niclosamide for 24 hours and migration rates were measured with Boyden chamber assay. […] Cells were treated with 1 μM niclosamide for 24 hours and cell invasion was determined by Boyden chamber assay. (C) Directed migration of HCT116-vector and HCT116-S100A4 cells exposed to niclosamide treatment analyzed by wound healing assay. […] Cells were treated daily with 1 μM niclosamide and cell viability was determined with MTT assay. […] (F) Quantification of colonies formed. […]

Consider `O=C(Nc1ccc([N+](=O)[O-])cc1Cl)c1cc(Cl)ccc1O` [niclosamide, 2′,5-dichloro-4′-nitrosalicylanilide], for which the “directed migration (wound healing)” value in assay [1] is “impaired”. The anchorage-dependent cell proliferation entry in assay [2] was “reduction of cell proliferation in both cell lines”.
